Experimental data as given in US8299096B2, “Method for treating pulmonary diseases using rho kinase inhibitor compounds” (priority 2008, dated 2012).
Like-named read-outs stand apart in the source and are kept apart here.

Columns and labels:
IRAK4 = target: T1, IRAK4 (Homo sapiens, UniProt Q9NWZ3); assay: Kinase panel screen, IRAK4; type: biochemical; conditions: 10 μM ATP
T1 construct: purchased Upstate, Millipore Bioscience Division (KinaseProfiler service)
T1 sequence (Q9NWZ3 1-460): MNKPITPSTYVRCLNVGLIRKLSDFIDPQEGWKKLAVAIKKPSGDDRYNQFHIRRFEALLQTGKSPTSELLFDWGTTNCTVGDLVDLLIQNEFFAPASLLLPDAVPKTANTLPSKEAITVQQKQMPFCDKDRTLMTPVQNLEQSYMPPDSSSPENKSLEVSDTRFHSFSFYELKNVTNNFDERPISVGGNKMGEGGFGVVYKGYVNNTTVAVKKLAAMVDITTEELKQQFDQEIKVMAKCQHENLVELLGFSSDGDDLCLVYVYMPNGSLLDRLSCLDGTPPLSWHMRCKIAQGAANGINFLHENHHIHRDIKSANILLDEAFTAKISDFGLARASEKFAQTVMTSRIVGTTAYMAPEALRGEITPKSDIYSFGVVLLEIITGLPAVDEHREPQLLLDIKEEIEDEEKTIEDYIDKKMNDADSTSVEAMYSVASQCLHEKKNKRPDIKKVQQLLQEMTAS
Method: (§1) Compounds of Formulae I and II were examined for activity against a selected panel of kinases using the KinaseProfiler™ enzyme profiling services (Upstate, Millipore Bioscience Division). Percent kinase activity at 10 μM and 1 μM test compound and 10 μM ATP was determined against 40 wild-type recombinant human kinases according to Upstate's standard protocol: ASK1, BTK, CSK, c-RAF, GCK, GSK3β, IKKα, IKKβ, IRAK1, IRAK4, JNK1α1, JNK2α2, JNK3, ERK1, ERK2, MAPKAP-K2, MAPKAP-K3, MEK1, MKK4, MKK6, MKK7β, Mnk2, MSK1, PAK3, PDK1, PRAK, ROCK1, Rsk2, SAPK2a, SAPK2b, SAPK3, SAPK4, SRPK1, SRPK2, Syk, TAK1, TBK1, PI3-Kβ, PI3-Kγ, PI3-Kδ.

[1] = tested on: ovalbumin-sensitized mice; assay: Prevention of airway hyperreactivity development, anti-inflammatory dosing paradigm (Penh); type: in vivo, mouse; conditions: intratracheal, once a day, days 27 to 30 (1.091) or 27 to 31
IRAK1 = target: T2, IRAK1 (Homo sapiens, UniProt P51617); assay: Kinase panel screen, IRAK1; type: biochemical; conditions: 10 μM ATP
T2 construct: purchased Upstate, Millipore Bioscience Division (KinaseProfiler service)
Method: as §1

Mnk2 = target: T3, Mnk2 (Homo sapiens, UniProt Q9HBH9); assay: Kinase panel screen, Mnk2; type: biochemical; conditions: 10 μM ATP
T3 construct: purchased Upstate, Millipore Bioscience Division (KinaseProfiler service)
Method: as §1

LPS-challenged mice = assay: LPS-induced neutrophilia and cytokine production assay; type: in vivo, mouse; conditions: intratracheal administration, LPS-challenged mice
Method: Male BALB/c mice, approximately 19 to 21 grams, were ordered from Charles River Laboratories (Raleigh, N.C.). All animals were challenged with aerosolized LPS (10 μg/ml) for 25 minutes on study day 0. LPS aerosol was generated using an Aerogen Aeroneb nebulizer and controller providing a flow of 400 μl/min and a particle size of 2-4 μm MMAD. Rolipram was administered i.p at 20 mg/kg. […] Four hours following LPS challenge, BALF was collected using a total of 3 ml of 0.9% sodium chloride containing 10% fetal calf serum. Total cell counts were determined using the Coulter Counter. For differential evaluations, BALF was centrifuged and cytospin slides prepared and stained with Hema3 stain. Manual leukocyte counts were then completed on 200 cells. The final concentration of individual leukocyte cell types per ml of BALF was determined by multiplication of the relative percentage of individual leukocytes with the total amount of cells/ml of BALF fluid. The concentration of IL-1β in the BALF samples was determined using commercially available Bio-plex kits (Bio-Rad). The analysis of cytokine levels was measured using the Bio-Plex 200 (Bio-Rad) system according to the manufacturer's instructions.

GCK = target: T4, GCK (Homo sapiens, UniProt Q12851); assay: Kinase panel screen, GCK; type: biochemical; conditions: 1 μM test compound, 10 μM ATP
T4 construct: purchased Upstate, Millipore Bioscience Division (KinaseProfiler service)
T4 sequence (Q12851 1-820): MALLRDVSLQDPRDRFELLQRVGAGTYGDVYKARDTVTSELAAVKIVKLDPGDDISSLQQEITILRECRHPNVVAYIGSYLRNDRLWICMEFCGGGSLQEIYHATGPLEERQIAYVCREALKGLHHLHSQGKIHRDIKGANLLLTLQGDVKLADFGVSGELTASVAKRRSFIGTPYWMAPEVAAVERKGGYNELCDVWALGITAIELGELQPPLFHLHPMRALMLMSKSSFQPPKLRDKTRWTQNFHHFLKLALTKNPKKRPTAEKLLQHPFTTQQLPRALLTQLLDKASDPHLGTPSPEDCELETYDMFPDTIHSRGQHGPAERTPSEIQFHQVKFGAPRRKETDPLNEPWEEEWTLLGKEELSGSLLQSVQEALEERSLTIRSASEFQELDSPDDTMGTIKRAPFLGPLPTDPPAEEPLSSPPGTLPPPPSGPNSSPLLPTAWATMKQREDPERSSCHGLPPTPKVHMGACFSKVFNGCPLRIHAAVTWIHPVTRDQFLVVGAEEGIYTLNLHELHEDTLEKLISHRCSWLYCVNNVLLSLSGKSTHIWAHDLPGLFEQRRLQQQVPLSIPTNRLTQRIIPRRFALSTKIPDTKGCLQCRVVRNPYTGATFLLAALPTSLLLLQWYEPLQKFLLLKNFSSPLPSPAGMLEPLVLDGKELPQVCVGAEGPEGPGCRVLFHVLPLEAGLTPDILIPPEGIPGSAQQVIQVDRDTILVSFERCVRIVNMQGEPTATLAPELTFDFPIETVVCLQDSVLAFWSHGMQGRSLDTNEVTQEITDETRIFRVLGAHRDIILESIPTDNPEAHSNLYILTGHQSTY
Method: as §1

[2] = Compound plasma concentrations in mice at 15 min post administration; type: in vivo, mouse; conditions: mouse
Method: Additionally, compound concentrations were determined in the plasma and lungs of male, ovalbumin-sensitized, Balb/c mice from a murine model of asthma. Test compounds were formulated in water or 1% polysorbate 80 and dosed at 15 μmol/kg for intraperitoneal (IP) or oral (PO) administration or formulated for intratracheal (IT) administration and dosed at 5 μmol/kg, which directly targets the lungs. Following completion of the in vivo study, mice were euthanized and blood and plasma collected approximately 2.5-3 hours post administration of test compound for bronchodialator (BD) studies and 24 hours post administration for anti-inflamatory (AI) studies. Lungs were homogenized in Matrix A lysing tubes using a FastPrep 24 tissue and cell homogenizer (MP Biomedicals, Solon, Ohio). Both plasma samples and lung extracts were assayed for compound concentrations using an on-line, solid phase extraction LC/MS/MS system.

p70S6K = target: T5, p70S6K (Homo sapiens, UniProt P23443, T412E); assay: p70S6K inhibition assay (IMAP); type: biochemical
T5 construct: purchased Upstate Chemicon 14-486
Method: Inhibition of Akt3 and p70S6K activity was determined using the IMAP™ FP Progressive Binding Kit (Molecular Devices product number R8127). […] Following the pre-incubation, 30 M ATP was added to initiate the reaction. After 60 minutes at RT, Molecular Devices IMAP™ binding solution was added to bind phosphorylated substrate. After 30 minutes of incubation in the presence of the IMAP™ beads the fluorescence polarization was read and the ratio was reported as mP. IC50 results were calculated using the Prism software from Graphpad. The Ki values were determined according to the following formula: Ki=IC50/(1+([ATP Challenge]/EC50 ATP)).

ROCK1 = target: T6, ROCK1 (Homo sapiens, UniProt Q13464); assay: Rho kinase inhibition assay (IMAP), ROCK1; type: biochemical
T6 construct: purchased Upstate/Chemicon 14-601
Method: Following the pre-incubation, 10 μM ATP was added to initiate the reaction. After 60 minutes at room temperature, Molecular Devices IMAP™ binding solution was added to bind phosphorylated substrate. After 30 minutes of incubation in the presence of the IMAP™ beads, the fluorescence polarization was read and the ratio was reported as mP. IC50 values for compounds and EC50 values for ATP were calculated using the Prism software from Graphpad.

[3] = Rat oral pharmacokinetics (plasma); type: in vivo
Method: Plasma (EDTA K2 anticoagulant) was collected from male, cannulated, CD Sprague Dawley rats to determine the pharmacokinetics of formulations containing compound inhibitors of Rho kinase. Each animal was dosed orally with a 4 ml/kg solution or suspension of each test compound in 10 mM acetate buffered saline, pH 4.5 at a final concentration range of 20-30 μmol/kg. Blood was collected at 0.25, 0.5, 1, 2, 4, 6, 8, and 24 hours. Plasma samples were assayed for the concentration of the test compound using an on-line, solid phase extraction LC/MS/MS analysis system.
Samples were analyzed on a QSTAR Elite, hybrid quadrupole time-of-flight mass spectrometer (Applied Biosystems, Framingham, Mass.) coupled with a Symbiosis Pharma integrated, on-line SPE-HPLC system (Spark Holland Inc., Plainsboro, N.J.). Analyst QS 2.0 software was used for instrument control, data acquisition and processing. […] Mobile Phase A consisted of 0.1% ammonium hydroxide in water and Mobile Phase B consisted of 0.1% formic acid in acetonitrile. Pharmacokinetic analyses were performed using WinNonlin software version 5.2 (Pharsight Corporation, Mountain View, Calif.).

[4] = tested on: ovalbumin-sensitized mice; assay: Bronchodilator assay in ovalbumin-sensitized mouse model of asthma (Penh); type: in vivo
Method: Male BALB/c mice were ordered from Charles River Laboratories (Raleigh, N.C.). The animals were approximately 19 to 21 grams at time of receipt. Upon arrival, the animals were randomized into groups of five males per cage and assigned to a dosing group. Animals were quarantined for 7 days under test conditions. They were observed daily for general health status and ability to adapt to the water bottles.
Animals were sensitized on day 0 and 14 of study by an intraperitoneal injection with 20 μg of ovalbumin (ova) and 2.0 mg aluminum hydroxide (alum) which initiates the development of a specific T-helper (Th) cells type 2 resulting in asthmatic animals. One group of animals received an injection of saline to use as non-asthmatic control animals. All animals were challenged with aerosolized 1% ova once daily for 25 minutes on days 28, 29, and 30 (Zosky, et al. Respiratory Research, 2004; 5:15). Aerosol challenge consists of using an Aerogen Aeroneb nebulizer and controller with a particle size of 4-6 μm mass median aerodynamic diameter (MMAD) with a distribution of 400 μl per minute. This aerosol challenge is necessary to target the Th2-driven allergic inflammation in the lower airways.
The test compounds and the control vehicle were administered to animals on the day of airway hyperreactivity evaluation 30 minutes to 1 hour before the evaluation to determine the bronchodilator effects of the compounds according to the bronchodilator dosing paradigm (FIG. 3A). Compounds were administered p.o. (orally), i.p. (intraperitoneally) at 15 μMol/kg unless otherwise noted (Table 4). Alternatively, compounds were administered i.t. (intratracheally) at varying doses as shown (FIG. 3B). On day 32 of the experiment, airway hyperreactivity was evaluated by placing conscious, unrestrained animals in a whole body plethysmometer (Buxco Wilmington, N.C.) and exposing them to escalating doses of nebulized methacholine, a known bronchial constrictor which acts through the muscarinic receptors of the lungs, (doses: […]-50 mg/ml). Exposure to the methacholine doses consisted of a 3 minute period during which a nebulizer was aerosolizing the methacholine and an additional 3 minute period following the cessation of nebulization. Over this 6 minute period, the plethysmometer monitors and generates numerical values for all parameters of the breath pattern. Enhanced pause (Penh), a unitless index of airway hyperreactivity, is derived from the expiratory side of the respiratory waveform measured via the plethysmograph and is used as an indirect measure of airway resistance and hyperreactivity. […] Following the methacholine dose response, all animals were anesthetized, bled and euthanized.
Within each experiment, a mouse was given a single compound and exposed to increasing doses of methacholine [0 (baseline), 0.375, 0.75, 1.5, 3, 6, 12, 25, 50 mg/ml]. The Penh value at each of the dose levels of methacholine represents the 6-minute average response. Change from baseline (CFB) in Penh was calculated at each methacholine dose and the area under the curve (AUC) for these CFB values was calculated using the trapezoidal rule. This same approach was applied for each mouse across multiple experiments.
For statistical analyses, a linear mixed-effects model where the response was the log 10 transformed value of AUC described above was used. Data from equal experimental conditions across experiments performed on different days were pooled for statistical analysis and data reporting. The various compounds were compared adjusting for the log 10-transformed baseline value of Penh and the chamber (1 of 10) of the plethysmometer each mouse was contained in during an experiment. A random intercept for each experiment was assumed to account for possible similarities of the results obtained from a given experiment (i.e., as a “blocking effect”).
For Table 4 and Table 5, Penh values are reported as log 10 transformed AUC values. […]

rat tracheal rings = assay: Tracheal relaxation assay, carbachol precontracted rings; conditions: average percentage of carbachol-induced rat trachael ring contraction at 1 μM of test compound
Method: Trachea were excised, cleaned of connective tissue and cut into cylindrical segments of 2-3 mm length. Two stainless steel wires were guided through the lumen of the tracheal ring. One wire was fixed in the tissue bath and the other was connected to a force transducer via surgical silk. […] Indomethacin (1 μM), a cyclooxygenase inhibitor, was added to the Krebs buffer and was present throughout the experiments. Contractile tensions were measured using an isometric force transducer (Grass Instruments) and signals were analyzed using specialized software (Chart v5.5, ADInstruments). The preparations were allowed to equilibrate at a resting tension of 0.3 to 0.5 gm prior to two challenges with 60 mM KCl to assess tissue viability. After washing, tissues were treated with 1 μM carbachol for 10 to 15 minutes to induce a contractile response. Test Compounds were added cumulatively to the bath every 30 minutes and reductions in tension were recorded. Basal tension was subtracted from all values and data were reported as a percentage of the maximal carbachol-induced contraction. Data were fit to the Hill equation using GraphPad Prism v5 software.

[5] = Balb/c, 15 μmol/kg, mean compound plasma concentration in mice at 15 minutes post oral administration, read-out: Mouse Oral PK
[6] = mice, plasma, 15 min post administration (oral dosing), mean of n = 3 mice, read-out: Plasma Mean Concentration
[7] = IMAP FP, human enzyme, Ki=IC50/(1+([ATP Challenge]/EC50 ATP)), read-out: p70S6K Ki, Avg
[8] = average Ki (Example 31), read-out: p70S6K Ki
[9] = read-out: ROCK1 Ki, average Ki (Example 1)
[10] = rat, oral, 20-30 μmol/kg, plasma, mean n = 3

T5 sequence (P23443 1-421 T412E limits assumed): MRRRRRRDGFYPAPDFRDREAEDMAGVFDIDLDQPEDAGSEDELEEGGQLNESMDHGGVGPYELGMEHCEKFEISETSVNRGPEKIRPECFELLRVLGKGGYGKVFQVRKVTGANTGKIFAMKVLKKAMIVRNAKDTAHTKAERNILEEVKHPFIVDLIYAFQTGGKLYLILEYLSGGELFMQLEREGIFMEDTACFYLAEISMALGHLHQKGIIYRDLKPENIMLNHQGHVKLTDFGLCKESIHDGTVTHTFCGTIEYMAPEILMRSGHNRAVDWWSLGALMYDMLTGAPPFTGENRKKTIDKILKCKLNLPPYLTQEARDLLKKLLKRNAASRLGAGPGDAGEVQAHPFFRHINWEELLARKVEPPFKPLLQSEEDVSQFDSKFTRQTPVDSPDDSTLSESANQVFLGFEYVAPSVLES
T2 sequence (P51617 whole entry): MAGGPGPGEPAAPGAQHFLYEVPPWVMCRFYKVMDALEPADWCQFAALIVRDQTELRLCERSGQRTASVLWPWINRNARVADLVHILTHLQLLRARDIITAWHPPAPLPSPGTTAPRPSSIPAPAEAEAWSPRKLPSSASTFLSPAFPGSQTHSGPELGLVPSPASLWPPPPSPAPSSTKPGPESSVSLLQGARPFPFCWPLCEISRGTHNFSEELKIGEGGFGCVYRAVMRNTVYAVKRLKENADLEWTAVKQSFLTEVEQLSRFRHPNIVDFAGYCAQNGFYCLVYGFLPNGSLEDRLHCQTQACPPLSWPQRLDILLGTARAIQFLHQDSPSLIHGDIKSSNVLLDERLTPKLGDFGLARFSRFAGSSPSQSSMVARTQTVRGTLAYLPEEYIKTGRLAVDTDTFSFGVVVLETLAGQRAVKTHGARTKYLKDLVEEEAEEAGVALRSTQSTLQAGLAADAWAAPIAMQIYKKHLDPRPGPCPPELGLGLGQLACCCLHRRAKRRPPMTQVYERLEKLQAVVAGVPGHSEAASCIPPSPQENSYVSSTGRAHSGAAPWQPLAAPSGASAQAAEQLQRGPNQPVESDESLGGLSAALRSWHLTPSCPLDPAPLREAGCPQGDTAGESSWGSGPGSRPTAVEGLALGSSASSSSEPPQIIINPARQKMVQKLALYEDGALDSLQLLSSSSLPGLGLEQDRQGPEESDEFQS
T6 sequence (Q13464 17-535 limits assumed): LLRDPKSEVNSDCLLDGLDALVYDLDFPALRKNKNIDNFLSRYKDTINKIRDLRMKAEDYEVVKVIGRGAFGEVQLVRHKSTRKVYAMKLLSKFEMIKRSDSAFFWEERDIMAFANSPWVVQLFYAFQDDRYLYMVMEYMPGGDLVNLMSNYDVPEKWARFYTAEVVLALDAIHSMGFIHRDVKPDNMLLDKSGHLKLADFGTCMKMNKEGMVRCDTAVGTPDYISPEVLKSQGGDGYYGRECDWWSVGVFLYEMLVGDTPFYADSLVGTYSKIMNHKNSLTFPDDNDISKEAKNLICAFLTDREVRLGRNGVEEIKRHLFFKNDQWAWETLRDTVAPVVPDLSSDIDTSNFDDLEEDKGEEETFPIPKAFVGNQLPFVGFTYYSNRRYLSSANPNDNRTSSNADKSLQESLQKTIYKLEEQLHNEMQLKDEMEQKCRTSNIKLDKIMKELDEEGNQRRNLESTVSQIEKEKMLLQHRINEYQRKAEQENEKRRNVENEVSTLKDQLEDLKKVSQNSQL
T3 sequence (Q9HBH9 whole entry): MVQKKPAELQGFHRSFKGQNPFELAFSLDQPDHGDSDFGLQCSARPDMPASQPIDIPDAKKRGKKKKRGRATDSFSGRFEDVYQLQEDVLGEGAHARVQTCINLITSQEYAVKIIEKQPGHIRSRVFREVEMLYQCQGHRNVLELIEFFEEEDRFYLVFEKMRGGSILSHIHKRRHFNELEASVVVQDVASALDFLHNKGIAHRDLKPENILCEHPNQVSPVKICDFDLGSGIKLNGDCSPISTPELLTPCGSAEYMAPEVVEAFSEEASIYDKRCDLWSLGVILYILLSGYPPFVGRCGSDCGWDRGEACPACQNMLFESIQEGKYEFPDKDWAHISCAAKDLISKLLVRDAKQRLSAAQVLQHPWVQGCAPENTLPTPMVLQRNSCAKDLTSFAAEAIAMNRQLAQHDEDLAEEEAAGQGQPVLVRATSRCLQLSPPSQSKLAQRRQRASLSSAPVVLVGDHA

SMILES	Percent inhibition, IRAK4 (IRAK4; 1 μM test compound) [%]	Percent inhibition, IRAK4 (IRAK4; 10 μM test compound) [%]	Prevention of airway hyperreactivity [1]	Percent inhibition, IRAK1 (IRAK1; 1 μM test compound) [%]	Percent inhibition, IRAK1 (IRAK1; 10 μM test compound) [%]	Percent inhibition, Mnk2 (Mnk2; 1 μM test compound) [%]	Percent inhibition, Mnk2 (Mnk2; 10 μM test compound) [%]	percent inhibition at 1 µM (GCK) [%]	also measured
NC(=O)Cn1ccc2cc(CN3CC[C@@H](Nc4cccc5cnccc45)C3)ccc21 [Compound 2.059]	63	22	prevention of airway hyperreactivity	87	30	49	12	75	IL-1β levels in BALF (LPS-challenged mice): reduction
Cc1ccc(CN2CCC[C@@H](Nc3ccc4[nH]ncc4c3)C2)cc1OCCO [Compound 1.161]	96	109	prevention of airway hyperreactivity	106	99	108	106	96	
OCCn1ccc2cc(CN3CC[C@@H](Nc4cccc5cnccc45)C3)ccc21 [Compound 2.066]			prevention of airway hyperreactivity	74	32	99	54	39	
Cc1ccc(CN2CCC[C@H](Nc3ccc4[nH]ncc4c3)C2)cc1NS(=O)(=O)N(C)C [Compound 1.237]									concentration at 15 min [2, 5]: 178 nM; concentration at 15 min [2, 6]: 178 nM; Ki (p70S6K; [7]): 9870 nM; Ki (p70S6K; [8]): 9870 nM; Ki (ROCK1): 287 nM; Ki (ROCK1; [9]): 287 nM
CCc1ccc(CN2CCC[C@@H](Nc3ccc4[nH]ncc4c3)C2)cc1 [Compound 1.136]									Oral bioavailability ([3]; oral dosing): poor; AUC (0-last) [3, 10]: below the level of quantification; Cmax [3, 10]: below the level of quantification; Reduction in airway hyperresponsiveness ([4]; i.p. route of administration, compared to oral dosing): enhanced reduction; Reduction in airway hyperresponsivness ([4]; oral doses): did not yield a significant reduction; Trachael Ring Contraction (rat tracheal rings): 45%
NC(=O)Cn1ccc2cc(CN3CCC[C@@H](Nc4ccc5[nH]ncc5c4)C3)ccc21 [Compound 1.162]	105	88		100	97	111	65	93	
Cc1ccc(CN2CCC[C@@H](Nc3ccc4[nH]ncc4c3)C2)cc1NS(=O)(=O)N(C)C [Compound 1.262]									concentration at 15 min [2, 5]: 285 nM; concentration at 15 min [2, 6]: 285 nM; Ki (p70S6K; [7]): 5440 nM; Ki (p70S6K; [8]): 5440 nM; Ki (ROCK1): 54.9 nM; Ki (ROCK1; [9]): 54.9 nM
